Laboratory results from patent US8420676B2, “Oxazolidinone derivatives” (Dong-A Pharmaceuticals Co. Ltd., priority 2003, dated 2013).
Values after ≈ are worked out from the molar mass of the structure shown.

How the values were obtained:
[1] = Assay for solubility in distilled water (turbidity by naked eye); type: physicochemical; settings: thermodynamic from solid, average of three runs
Method: The derivatives of the present invention were added to 200 μl of distilled water and then the solution was stirred for 2 minutes. The turbidity of the solution was watched through naked eye.
When the derivatives were not dissolved completely, 50 μl of distilled water was added to the solution and then the turbidity of the solution was assayed in the above manner to find a point of becoming transparent solution.
When 2 mg of the derivatives was first added to distilled water and completely dissolved so that the solution became transparent, 2 mg of the derivatives was added more to the solution and then state of the solution was watched. The derivatives of the present invention were added to the five times and then solubility of the solution was assayed for. The assay for solubility was carried out the three times repeatedly in the above method and the results were averaged.

[2] = system: vancomycin resistant Enterococci (VRE); assay: Assay for in vitro antibacterial activity, agar dilution (VRE); settings: Enterococcus, read-out: Minimum Inhibitory Concentration (MIC50) VRE
[3] = system: methicillin resistant Staphylococcus aureus (MRSA); assay: Assay for in vitro antibacterial activity, agar dilution (MRSA); settings: read-out: Minimum Inhibitory Concentration (MIC50) MRSA

SMILES	solubility at 2 min [1]	MIC50 [2]	MIC50 [3]
Cc1nnc(-c2ccc(-c3ccc(N4C[C@H](COC(=O)CCN)OC4=O)cc3F)cn2)o1 [Compound 57, (R)-3-(4-(2-(2-methyl-[1,3,4]oxadiazol-5-yl)pyridin-5-yl)-3-fluorophenyl)-5-(β-alanyloxy)methyl oxazolidin-2-one trifluoroacetic acid]	> 50 mg/mL		
NCC(=O)OCc1csc(-c2ccc(-c3ccc(N4C[C@H](Cn5ccnn5)OC4=O)cc3F)cc2)n1 [Compound 37, (R)-3-(4-(4-(4-glycyloxymethylthiazol-2-yl)phenyl)-3-fluorophenyl)-5-([1,2,3]triazol-1-yl)methyl oxazolidin-2-one trifluoroacetic acid]		0.5 µg/mL (≈ 0.983 µM)	0.5 µg/mL (≈ 0.983 µM)
O=C1O[C@@H](Cn2ccnn2)CN1c1ccc(-c2ccc(-c3nc(CO)cs3)cc2)c(F)c1 [Compound 36, (R)-3-(4-(4-(4-hydroxymethylthiazol-2-yl)phenyl)-3-fluorophenyl)-5-([1,2,3]triazol-1-yl)methyl oxazolidin-2-one]		0.5 µg/mL (≈ 1.11 µM)	0.5 µg/mL (≈ 1.11 µM)
CNC[C@H]1CN(c2ccc(-c3ccc(-c4nnn(C)n4)nc3)c(F)c2)C(=O)O1 [Compound 41]		8 µg/mL (≈ 20.9 µM)	4 µg/mL (≈ 10.4 µM)
CC(=O)NC[C@H]1CN(c2ccc(-c3ccc(-n4cc(COC(=O)CN)nn4)nc3)c(F)c2)C(=O)O1 [Compound 2, (S)-3-(4-(2-(4-glycyloxymethyl-1,2,3-triazol-1-yl)pyridin-5-yl)-3-fluorophenyl)-2-oxo-5-oxazolidinylmethyl acetamide trifluoroacetic acid]		0.125 µg/mL (≈ 0.259 µM)	0.5 µg/mL (≈ 1.03 µM)
CC(=O)NC[C@H]1CN(c2ccc(-c3ccc(-c4nc(COC(=O)CN)cs4)cc3)c(F)c2)C(=O)O1 [Compound 30, (S)-3-(4-(4-(4-glycyloxymethylthiazol-2-yl)phenyl)-3-fluorophenyl)-2-oxo-5-oxazolidinylmethyl acetamide trifluoroacetic acid]		0.5 µg/mL (≈ 1 µM)	0.5 µg/mL (≈ 1 µM)
Cl.Cn1nnnc1-c1ccc(-c2ccc(N3C[C@H](COC(=O)CN)OC3=O)cc2F)cn1 [Compound 63, (R)-3-(4-(2-(1-methyltetrazol-5-yl)pyridin-5-yl)-3-fluorophenyl)-5-glycyloxymethyl oxazolidin-2-one hydrochloride]		0.25 µg/mL	0.5 µg/mL
CC(C)[C@H](N)C(=O)OC[C@H]1CN(c2ccc(-c3ccc(-c4nnnn4C)nc3)c(F)c2)C(=O)O1.Cl [Compound 67, (R)-3-(4-(2-(1-methyltetrazol-5-yl)pyridin-5-yl)-3-fluorophenyl)-5-(L-valyloxy)methyl oxazolidin-2-one hydrochloride]		0.25 µg/mL	0.5 µg/mL
Cn1nnc(-c2ccc(-c3c(F)cc(N4C[C@H](CO)OC4=O)cc3F)cn2)n1 [Compound 38, (R)-3-(4-(2-(2-methyltetrazol-5-yl)pyridin-5-yl)-3,5-difluorophenyl)-5-hydroxymethyl oxazolidin-2-one]		1 µg/mL (≈ 2.58 µM)	0.5 µg/mL (≈ 1.29 µM)
Cn1nnnc1-c1ccc(-c2ccc(N3C[C@H](COP(=O)(O)O)OC3=O)cc2F)cn1 [Compound 73, mono-[(R)-[3-(4-(2-(1-methyltetrazol-5-yl)pyridin-5-yl)-3-fluorophenyl)-2-oxo-5-oxazolidinyl]methyl]phosphate]		32 µg/mL (≈ 71.1 µM)	32 µg/mL (≈ 71.1 µM)
Cn1nnc(-c2ccc(-c3ccc(N4C[C@H](CF)OC4=O)cc3F)cn2)n1 [Compound 18, (R)-3-(4-(2-(2-methyltetrazol-5-yl)pyridin-5-yl)-3-fluorophenyl)-5-fluoromethyl oxazolidin-2-one]		2 µg/mL (≈ 5.37 µM)	1 µg/mL (≈ 2.69 µM)
Cl.Cn1nnnc1-c1ccc(-c2ccc(N3C[C@H](COC(=O)CCN)OC3=O)cc2F)cn1 [Compound 69, (R)-3-(4-(2-(1-methyltetrazol-5-yl)pyridin-5-yl)-3-fluorophenyl)-5-(β-alanyloxy)methyl oxazolidin-2-one hydrochloride]		0.25 µg/mL	0.5 µg/mL
C[C@H](N)C(=O)OC[C@H]1CN(c2ccc(-c3ccc(-c4nnnn4C)nc3)c(F)c2)C(=O)O1.Cl [Compound 65, (R)-3-(4-(2-(1-methyltetrazol-5-yl)pyridin-5-yl)-3-fluorophenyl)-5-(L-alanyloxy)methyl oxazolidin-2-one hydrochloride]		0.25 µg/mL	0.5 µg/mL
CC(=O)NC[C@H]1CN(c2ccc(-c3ccc(C4=NOC(COC(=O)CN)C4)nc3)c(F)c2)C(=O)O1 (stereo partly drawn) [Compound 7, (S)-3-(4-(2-(5-glycyloxymethyl-4,5-dihydroisoxazole-3-yl)pyridin-5-yl)-3-fluorophenyl)-2-oxo-5-oxazolidinylmethyl acetamide trifluoroacetic acid]		0.5 µg/mL (≈ 1.03 µM)	0.5 µg/mL (≈ 1.03 µM)
O=C1O[C@@H](Cn2ccnn2)CN1c1ccc(-c2ccc(-n3cncn3)nc2)c(F)c1 [Compound 14, (R)-3-(4-(2-([1,2,4]triazol-1-yl)pyridin-5-yl)-3-fluorophenyl)-5-([1,2,3]triazol-1-yl)methyl oxazolidin-2-one]		0.25 µg/mL (≈ 0.615 µM)	0.25 µg/mL (≈ 0.615 µM)
Cc1nnc(-c2ccc(-c3c(F)cc(N4C[C@H](CO)OC4=O)cc3F)cn2)o1 [Compound 39, (R)-3-(4-(2-(2-methyl-[1,3,4]oxadiazol-5-yl)pyridin-5-yl)-3,5-difluorophenyl)-5-hydroxymethyl oxazolidin-2-one]		1 µg/mL (≈ 2.58 µM)	1 µg/mL (≈ 2.58 µM)
CC(=O)NC[C@H]1CN(c2ccc(N3CCOCC3)c(F)c2)C(=O)O1 [Zyvox, reference compound]		2 µg/mL (≈ 5.93 µM)	2 µg/mL (≈ 5.93 µM)
CC(=O)NC[C@H]1CN(c2ccc(-c3ccc(C4=NC(CO)CO4)cc3)c(F)c2)C(=O)O1 (stereo partly drawn) [Compound 26, (S)-3-(4-(4-(4(S)-hydroxymethyl-4,5-dihydroxazole-2-yl)phenyl)-3-fluorophenyl)-2-oxo-5-oxazolidinylmethyl acetamide]		0.5 µg/mL (≈ 1.17 µM)	0.5 µg/mL (≈ 1.17 µM)
CC(=O)NC[C@H]1CN(c2ccc(-c3ccc(-c4nc(C)c(C)o4)cc3)c(F)c2)C(=O)O1 [Compound 11, (S)-3-(4-(4-(4,5-dimethyloxazol-2-yl)phenyl)-3-fluorophenyl)-2-oxo-5-oxazolidinylmethyl acetamide]		0.25 µg/mL (≈ 0.59 µM)	0.5 µg/mL (≈ 1.18 µM)
O=C1O[C@@H](CO)CN1c1ccc(-c2ccc(-n3nccn3)nc2)c(F)c1 [Compound 29, (R)-3-(4-(2-([1,2,3]triazol-2-yl)pyridin-5-yl)-3-fluorophenyl)-5-hydroxymethyl oxazolidin-2-one]		1 µg/mL (≈ 2.81 µM)	0.5 µg/mL (≈ 1.41 µM)
Cc1nc(-c2ccc(-c3ccc(N4C[C@H](COC(=O)CN)OC4=O)cc3F)cc2)oc1C [Compound 23, (R)-3-(4-(4-(4,5-dimethyloxazol-2-yl)phenyl)-3-fluorophenyl)-5-glycyloxymethyl oxazolidin-2-one trifluoroacetic acid]		2 µg/mL (≈ 4.55 µM)	2 µg/mL (≈ 4.55 µM)
N#CCc1csc(-c2ccc(-c3ccc(N4C[C@H](COC(=O)CN)OC4=O)cc3F)cc2)n1 [Compound 34, (R)-3-(4-(4-(4-cyanomethylthiazol-2-yl)phenyl)-3-fluorophenyl)-5-glycyloxymethyl oxazolidin-2-one trifluoroacetic acid]		1 µg/mL (≈ 2.14 µM)	1 µg/mL (≈ 2.14 µM)
Cn1nnnc1-c1ccc(-c2ccc(N3C[C@H](Cn4ccnn4)OC3=O)cc2F)cn1 [Compound 71, (R)-3-(4-(2-(1-methyltetrazol-5-yl)pyridin-5-yl)-3-fluorophenyl)-5-([1,2,3]triazol-1-yl)methyl oxazolidin-2-one]		0.125 µg/mL (≈ 0.297 µM)	0.5 µg/mL (≈ 1.19 µM)
Cn1nnc(-c2ccc(-c3ccc(N4C[C@H](Cn5nccn5)OC4=O)cc3F)cn2)n1 [Compound 8, (R)-3-(4-(2-(2-methyltetrazol-5-yl)pyridin-5-yl)-3-fluorophenyl)-5-([1,2,3]triazol-2-yl)methyl oxazolidin-2-one]		16 µg/mL (≈ 38 µM)	16 µg/mL (≈ 38 µM)
CC(=O)NC[C@H]1CN(c2ccc(-c3ccc(N4CC(COC(=O)CN)CC4=O)nc3)c(F)c2)C(=O)O1 (stereo partly drawn) [Compound 1, (S)-3-(4-(2-(2-oxo-4-glycyloxymethylpylolidin-1-yl)pyridin-5-yl)-3-fluorophenyl)-2-oxo-5-oxazolidinylmethyl acetamide trifluoroacetic acid]		0.25 µg/mL (≈ 0.501 µM)	1 µg/mL (≈ 2 µM)
Cn1nnc(-c2ccc(-c3ccc(N4C[C@H](Cn5ccnn5)OC4=O)cc3F)cn2)n1 [Compound 9, (R)-3-(4-(2-(2-methyltetrazol-5-yl)pyridin-5-yl)-3-fluorophenyl)-5-([1,2,3]triazol-1-yl)methyl oxazolidin-2-one]		0.125 µg/mL (≈ 0.297 µM)	0.25 µg/mL (≈ 0.593 µM)
Cc1nc(-c2ccc(-c3ccc(N4C[C@H](CO)OC4=O)cc3F)cc2)oc1C [Compound 21, (R)-3-(4-(4-(4,5-dimethyloxazol-2-yl)phenyl)-3-fluorophenyl)-5-hydroxymethyl oxazolidin-2-one]		1 µg/mL (≈ 2.62 µM)	1 µg/mL (≈ 2.62 µM)
Cn1nnc(-c2ccc(-c3ccc(N4C[C@H](Cn5cncn5)OC4=O)cc3F)cn2)n1 [Compound 4, (R)-3-(4-(2-(2-methyltetrazol-5-yl)pyridin-5-yl)-3-fluorophenyl)-5-([1,2,4]triazol-1-yl)methyl oxazolidin-2-one]		2 µg/mL (≈ 4.75 µM)	2 µg/mL (≈ 4.75 µM)
Cn1nnnc1-c1ccc(-c2ccc(N3C[C@H](CO)OC3=O)cc2F)cn1 [Compound 61, (R)-3-(4-(2-(1-methyltetrazol-5-yl)pyridin-5-yl)-3-fluorophenyl)-5-hydroxymethyl oxazolidin-2-one]		0.25 µg/mL (≈ 0.675 µM)	0.5 µg/mL (≈ 1.35 µM)
